Assay: xn = mol fraction of the nth substance listed
Settings: for surface tension liquid-gas: Maximal bubble pressure; for mass density: 100 kPa, Liquid, Vibrating tube method

CCCC[n+]1ccccc1.N#C[N-]C#N [1-butylpyridinium dicyanamide] + CCCO
Settings	mass density [kg/m3]	surface tension liquid-gas [mN/m]
288.15 K, x1 = 0.1001	872.25	26.5
288.15 K, x1 = 0.2008	919.12	27.9
288.15 K, x1 = 0.3008	954.79	29.5
288.15 K, x1 = 0.4009	982.76	31.7
288.15 K, x1 = 0.4994	1005.24	33.1
288.15 K, x1 = 0.5998	1023.96	35.7
288.15 K, x1 = 0.6976	1039.92	38.4
288.15 K, x1 = 0.7974	1052.61	41.2
288.15 K, x1 = 0.903	1064.59	45.8
288.15 K, x1 = 1	1074.97	56.3
293.15 K, x1 = 0.1001	868.53	26.1
293.15 K, x1 = 0.2008	915.57	27.6
293.15 K, x1 = 0.3008	951.37	29.1
293.15 K, x1 = 0.4009	979.42	31.3
293.15 K, x1 = 0.4994	1001.98	32.8
293.15 K, x1 = 0.5998	1020.75	35.3
293.15 K, x1 = 0.6976	1036.74	38
293.15 K, x1 = 0.7974	1049.46	41
293.15 K, x1 = 0.903	1061.47	45.6
293.15 K, x1 = 1	1071.9	56
298.15 K, x1 = 0.1001	864.79	25.6
298.15 K, x1 = 0.2008	912.01	27.1
298.15 K, x1 = 0.3008	947.94	28.8
298.15 K, x1 = 0.4009	976.09	31.1
298.15 K, x1 = 0.4994	998.72	32.5
298.15 K, x1 = 0.5998	1017.54	35
298.15 K, x1 = 0.6976	1033.57	37.7
298.15 K, x1 = 0.7974	1046.31	40.7
298.15 K, x1 = 0.903	1058.35	45.2
298.15 K, x1 = 1	1068.83	55.7
303.15 K, x1 = 0.1001	861.04	25.2
303.15 K, x1 = 0.2008	908.45	26.7
303.15 K, x1 = 0.3008	944.53	28.4
303.15 K, x1 = 0.4009	972.76	30.7
303.15 K, x1 = 0.4994	995.47	32.2
303.15 K, x1 = 0.5998	1014.34	34.7
303.15 K, x1 = 0.6976	1030.42	37.4
303.15 K, x1 = 0.7974	1043.18	40.4
303.15 K, x1 = 0.903	1055.25	45
303.15 K, x1 = 1	1065.76	55.5
308.15 K, x1 = 0.1001	857.28	24.7
308.15 K, x1 = 0.2008	904.9	26.4
308.15 K, x1 = 0.3008	941.11	28.1
308.15 K, x1 = 0.4009	969.44	30.4
308.15 K, x1 = 0.4994	992.23	31.7
308.15 K, x1 = 0.5998	1011.15	34.4
308.15 K, x1 = 0.6976	1027.27	37.1
308.15 K, x1 = 0.7974	1040.07	40.1
308.15 K, x1 = 0.903	1052.16	44.7
308.15 K, x1 = 1	1062.7	55.2
313.15 K, x1 = 0.1001	853.51	24.4
313.15 K, x1 = 0.2008	901.33	26
313.15 K, x1 = 0.3008	937.71	27.7
313.15 K, x1 = 0.4009	966.13	30
313.15 K, x1 = 0.4994	989	31.5
313.15 K, x1 = 0.5998	1007.98	34.1
313.15 K, x1 = 0.6976	1024.14	36.8
313.15 K, x1 = 0.7974	1036.96	39.8
313.15 K, x1 = 0.903	1049.09	44.4
313.15 K, x1 = 1	1059.66	54.9
318.15 K, x1 = 0.1001	849.73	24
318.15 K, x1 = 0.2008	897.78	25.6
318.15 K, x1 = 0.3008	934.3	27.3
318.15 K, x1 = 0.4009	962.85	29.6
318.15 K, x1 = 0.4994	985.79	31.2
318.15 K, x1 = 0.5998	1004.82	33.8
318.15 K, x1 = 0.6976	1021.02	36.6
318.15 K, x1 = 0.7974	1033.88	39.5
318.15 K, x1 = 0.903	1046.03	44.1
318.15 K, x1 = 1	1056.64	54.5
